This note sets out measurements from patent US9861703B2 (Jinan Platinum Pharmatech Co. Ltd., priority 2013, dated 2018).

Data set [1] has as its system human leukemia cell line K562. Put plainly: MTT proliferation inhibition, K562. The settings on record: 48 h. The class given is cell-based. The procedure:
(§1) Human leukemia cell line K562, clear-cell ovarian carcinoma cell line ES-2, human prostate cancer cell line PC-3, human breast cancer cell line MCF-7, cell line Hela, human liver cancer cell line H7402 and human ovarian cancer cell line 3-AO were transferred into a culture flask and were cultured in a medium at 37° C. in a 5% CO2 and saturation humidity. One bottle of cells in logarithmic growth phase was picked out and was blew and beaten to be uniform with a pipette, then took some cell suspension solution to prepare blood counting plate smear to count cells under inverted microscope, and then adjusted the cell number to be 1×10^5/mL by adding some culture medium. Cells were seeded on a 96-well plate on which also drug tests performed. Blank control group, negative control group, positive control group and drug test group were established on the plate while the surrounding wells of the plate were not used (but filled with sterile PBS), wherein the blank control groups were prepared by addition of culture medium 150 μL per well, the negative control groups were prepared by addition of cell suspension solution 100 μL per well and culture medium 50 μL per well, the positive control groups were prepared by addition of cell suspension solution 100 μL per well and positive control drug solution 50 μL per well, the drug test groups were prepared by addition of cell suspension solution 100 μL per well and test compound solution 50 μL per well, and there were 5 different concentrations of drug in the positive control group and the drug test group respectively: 0.01, 0.1, 1, 10, 100 μmol·L^−1, each concentration was established with 3 parallel wells. After the drug was added, the 96-well plate was incubated for 48 h at 37° C. in a CO2 incubator of 5% CO2 and saturation humidity. Upon completion of the incubation, 20 μL MTT solution (concentration was 5 mg/mL) was added to each well and incubated for an additional 4 h, and after the 96-well plate was centrifuged at 2000 rpm for 30 min, medium of each well was suck out carefully and removed and 100 μL DMSO was added instead, followed by vibrating on a tablet shaker for 15 min to re-dissolve formazan crystals completely. OD value of each well was measured at 570 nm wavelength using an enzyme-linked immunosorbent assay reader to calculate cellular proliferation inhibitory ratio of each drug in different concentrations. And half-inhibitory concentration (IC50) was calculated using statistical software SPSS 16.0, wherein the cellular proliferation inhibitory ratio can be calculated as following equation: […]

The next data set concerns liver cancer H22. Put plainly: Inhibition assay of oral administration against liver cancer H22 (Example 33). The class given is in vivo, Kunming mice. Conditions: oral gavage, 100 mg/kg/d, sacrificed after 13 days. On the procedure: (1) the negative control: PBS; (2) Xeloda group: 100 mg/kg/d; (3) TFU group: 70 mg/kg/d; (4) BC-01 group: 100 mg/kg/d.
[formula] [formula] [formula] 2.2: Inhibition Assay of Intravenous Administration Against Liver Cancer H22

The subject of a further data set is H22 tumor cells. In words: Activities of compounds in H22 tumor cells bearing Kunming mice models (Example 34). The settings on record: for anti-tumor growth activity: FIGS. 11-14; for Number of mice alive: 8 mice; for Tumor growth inhibition (%) / Tumor weight: after two cycles.
The test system of data set [2] is human breast cancer cell line MCF-7. Put plainly: MTT proliferation inhibition, MCF-7. Format: cell-based. Conditions: 48 h. On the procedure:
as §1

Data set [3] has as its system human ovarian cancer cell line 3-AO. In words: MTT proliferation inhibition, 3-AO. The class given is cell-based. Conditions: 48 h. The procedure: as §1
The next data set has as its system cell line Hela. In words: MTT proliferation inhibition, Hela. The class given is cell-based. The procedure: as §1
Setting [4] is: intravenous injection, 50 mg/kg/d (0.1 mmol/kg/d).
The mark [5] stands for this setting: oral gavage, 120 mg/kg/d ([…]) per dosage table, group printed *BC-01(50).
The mark [6] stands for this setting: intravenous injection, 55 mg/kg/d (0.1 mmol/kg/d) (by order of dosage table).
The mark [7] stands for this setting: intravenous injection, 79 mg/kg/d (0.15 mmol/kg/d) (by order of dosage table).
Setting [8] is: oral gavage, 130 mg/kg/d ([…]) per dosage table, group printed *BC-02(70).

Procedure for H22 tumor cells: The ascites was extracted from H22 tumour bearing mice with well growth, followed by adding sterile PBS to dilute the ascites to a concentration of 8.5×10^7 cells/mL. 100 uL of the cells solution was suck up by a 1 mL sterile injector to inoculate into right oxter of mice. After 3 days, the mice were weighted and randomized to several groups (almost 8 mice per group, and a bit more in control group). These mice were administrated a predetermined dosage by intravenous or oral gavage with two days off when having administrated for 5 days until two cycles one of which had 7 days. The body weight of mouse was recorded at the beginning and ending of every cycle,
After being administrated for two cycles, the mice were weighted and recorded, then sacrificed by cervical dislocation to get lung, liver and spleen weighted respectively.
Overall difference was calculated by the function of one-way analysis of variance (One-Way ANOVA) in Origin 7.5 software; and t-test was used for pair-comparison between drug administrated group and blank group, and the inhibitory ratio of drug in each group was calculated based on the following equation: inhibitory ratio (100%)=(mean tumor weight of control group−mean tumor weight of drug administrated group)/mean tumor weight of control group×100.

Usually EC50 stands for the concentration that produces a half-maximal response. Read a low EC50 as higher potency in that assay. `CC(C)C[C@H](NC(=O)[C@@H](O)[C@H](N)Cc1ccccc1)C(=O)OCn1cc(F)c(=O)[nH]c1=O.Cl` [BC-01, (S)-(5-fluoro-2,4-dioxo-3,4-dihydropyrimidinyl-1(2H))methyl-2-((2S,3R)-3-(amino)-2-hydroxy-4-phenylbutyryl)-4-methylpentanoate hydrochloride]: the half-maximal effective concentration (EC50) is 5.82 µM in data set [1], 1.35 µM in data set [2], 2.59 µM in data set [3] and 0.73 µM with cell line Hela (48 h). In addition, the Tumor weight in the data set on liver cancer H22 (two cycles (5 days on, 2 off)) is 0.26 g; with H22 tumor cells (setting [4]) it was 0.09 ± 0.14 g; in the data set on H22 tumor cells (setting [5]), 0.12 ± 0.16 g. In addition, in the data set on liver cancer H22 (two cycles), the “inhibitory ratio (%)” value came out at 66.67%. Besides, in the data set with H22 tumor cells, the “anti-tumor growth activity” value was “excellent anti-tumor growth activity”. Also, the “Number of mice alive” value in the data set with H22 tumor cells (intravenous injection, 50 mg/kg/d (0.1 mmol/kg/d), two cycles) is given as 8; with H22 tumor cells (setting [5]) it was 7. Moreover, the figures for the “Tumor growth inhibition (%)” value in the data set on H22 tumor cells (setting [4]) and in the data set on H22 tumor cells (setting [5]) were 84.38% and 79.52%, respectively. Besides, the “Body weight(g) Beginning” value came out at 31.52 ± 3.63 g with H22 tumor cells (setting [4]) and 27.87 ± 2.55 g in the data set with H22 tumor cells (setting [5]). In addition, the “Body weight(g) Ending” value in the data set with H22 tumor cells (setting [4]) worked out at 31.78 ± 5.76 g; in the data set with H22 tumor cells (setting [5]), 29.50 ± 2.15 g. Besides, the “proliferation inhibition activity against Hela compared with ubenimex and 5-FU” value with cell line Hela was “much higher proliferation inhibition activity”.

In the case of `CC(C)C[C@H](NC(=O)[C@@H](O)[C@H](N)Cc1ccccc1)C(=O)NCC(=O)OCn1cc(F)c(=O)[nH]c1=O.Cl` [BC-02, (5-fluoro-2,4-dioxo-3,4-dihydropyrimidinyl-1(2H))methyl-2-((S)-2-((2S,3R)-3-amino-2-hydroxy-4-phenylbutanamido)-4-methylpentanamido)acetate hydrochloride], the “tumor appearance until the end of the experiment” value in the data set with H22 tumor cells (0.15 mmol/kg/d, intravenous) is given as “no tumor appeared”. Further, the “anti-tumor growth activity” value with H22 tumor cells was “excellent anti-tumor growth activity”. Further, in the data set with H22 tumor cells (setting [6]), the “Number of mice alive” value stood at 7, the “Tumor growth inhibition (%)” value was 89.52%, the “Tumor weight” value came out at 0.06 ± 0.11 g and the “Body weight(g) Beginning” value amounted to 25.67 ± 2.62 g. Further, the “Body weight(g) Ending” value in the data set with H22 tumor cells (setting [6]) was determined as 28.35 ± 3.71 g. Besides, in the data set with H22 tumor cells (setting [7]), the “Number of mice alive” value is given as 7, the “Tumor growth inhibition (%)” value is recorded as 100%, the “Tumor weight” value amounted to 0.0 ± 0.0 g and the “Body weight(g) Beginning” value was found to be 30.32 ± 4.42 g. Besides, the “Body weight(g) Ending” value with H22 tumor cells (setting [7]) amounted to 31.13 ± 3.55 g. For the same molecule, in the data set on H22 tumor cells (setting [8]), the “Number of mice alive” value amounted to 7, the “Tumor growth inhibition (%)” value turned out to be 89.76%, the “Tumor weight” value came to 0.06 ± 0.11 g and the “Body weight(g) Beginning” value turned out to be 27.98 ± 3.73 g. Also, the “Body weight(g) Ending” value in the data set with H22 tumor cells (setting [8]) was found to be 27.49 ± 4.94 g.
